Experimental data reported in patent US8153431B2, “Compositions and methods for making mutations in cell lines and animals” (ABT Holding Company, priority 2001, dated 2012).

Key:
single copy HPRT gene = experiment: Mutation rate by knockout of single copy HPRT gene (6-thioguanine selection) in Jurkat cells; format: cell-based, human
Excerpt: The ability to identify all genetic mutations that can create a phenotype requires that large numbers of mutations be created in as few cells as possible, and the high efficiency of ENU chemical mutagenesis is suited to this task. We set out to determine the ENU treatment needed to create 50-100 cell libraries in which all genes are mutated at least once (defined as a 1× knockout library) in Jurkat cells. To characterize the mutagenesis we measured both cell survival and the mutation rate in characterizing the optimal ENU treatment (Table I). Survival was determined by limiting dilution, and the mutation rate was estimated in the population of surviving clones based on the frequency of knocking out the single copy HPRT gene (assayed by the survival of such HPRT^− cells upon culture in the presence of 6-thioguanine). […]
• Jurkat cells were treated with 10 uM O-6-BG (Sigma) at 5×10^5 cells/ml for 16 hours at 37° C. in a humidified incubator with 5% CO2. […] Viability is determined by the lower density seeding based on number of wells containing growing colonies. […] Number of wells containing growing colonies in the presence of 6-TG was scored 7-10 days later. Mutation frequency is calculated as # of 6-TG resistant colony divided by # of viable cells seeded.

Jurkat cells = experiment: Cell survival after ENU treatment (limiting dilution); format: cell-based, human; details: 2 hours, with 10 uM O-6-BG
Excerpt: The ability to identify all genetic mutations that can create a phenotype requires that large numbers of mutations be created in as few cells as possible, and the high efficiency of ENU chemical mutagenesis is suited to this task. We set out to determine the ENU treatment needed to create 50-100 cell libraries in which all genes are mutated at least once (defined as a 1× knockout library) in Jurkat cells. To characterize the mutagenesis we measured both cell survival and the mutation rate in characterizing the optimal ENU treatment (Table I). Survival was determined by limiting dilution, and the mutation rate was estimated in the population of surviving clones based on the frequency of knocking out the single copy HPRT gene (assayed by the survival of such HPRT^− cells upon culture in the presence of 6-thioguanine). As shown in the table below, at an ENU dose of 0.2 mg/ml the mutation rate is 0.02 HPRT^− genes/cell and the 1× library size is therefore ˜50 cells. Creation of libraries of these densely mutagenized cells provides a genetically sensitized background in which small increments of further mutagenesis can create phenotypes by knocking out the sole remaining wild type alleles of ENU-mutated genes.
• Jurkat cells were treated with 10 uM O-6-BG (Sigma) at 5×10^5 cells/ml for 16 hours at 37° C. in a humidified incubator with 5% CO2. The pretreated cells were then incubated with desired concentration of ENU (Sigma) in the presence of O-6-BG for 2 hours at 37° C. with constant shaking. At the end of incubation cells were washed with 10-volume 1×PBS three times and resuspended in complete media with 10 uM O-6-BG. 24 hours later O-6-BG was washed off, cells were resuspended in complete media and seeded onto 96-well plate at 20 cells per well or 400-2000 cells per well. Cells were then cultured for 10 days. Viability is determined by the lower density seeding based on number of wells containing growing colonies. To determine mutation frequency, cells seeded at the higher density were used to select for Hprt-loss of function mutants in the presence of 40 uM 6-TG (Sigma). Number of wells containing growing colonies in the presence of 6-TG was scored 7-10 days later. Mutation frequency is calculated as # of 6-TG resistant colony divided by # of viable cells seeded.

## CCN(N=O)C(N)=O [ENU, N-ethyl-N-nitrosourea]
Single copy HPRT gene; ENU dose of 0.2 mg/ml, Jurkat
  mutation rate: 0.02 HPRT^− genes/cell
Single copy HPRT gene; Jurkat clones after 0.2 mg/ml ENU mutagenesis
  genes in each cell with knockout in one copy: 1-3%
Jurkat cells; ENU 0.1 mg/ml
  % survival: 1.83%
Jurkat cells; ENU 0.125 mg/ml
  % survival: 0.93%
Jurkat cells; ENU 0.15 mg/ml
  % survival: 1.08%
Jurkat cells; ENU 0.175 mg/ml
  % survival: 0.88%
Jurkat cells; ENU 0.2 mg/ml
  % survival: 0.29%
Jurkat cells; ENU 0.25 mg/ml
  % survival: 0.07%
